# Values of other authors as cited in patent US20050228336A1, “Electrically assisted lidocaine and epinephrine delivery device having extended shelf-stability” (priority 2004, published 2005).
# Settings: iontophoresis in vitro across human skin
row,SMILES,Cumulative delivery compared with lidocaine
1,CCCNC(C)C(=O)Nc1ccccc1C (stereo not drawn) [prilocalne],slightly greater delivery
2,CCCN(CC)C(CC)C(=O)Nc1c(C)cccc1C (stereo not drawn) [etidocaine],slightly greater delivery
3,CCN(CC)CCOC(=O)c1ccc(N)cc1 [procaine],slightly greater delivery
